Data taken from patent US20050159431A1, “Substituted alkyl uracils and thereof” (Bayer Healthcare AG, priority 2002, published 2005).

Target: T1, human PARS enzyme (Homo sapiens, UniProt P09874)
T1 construct: made in house; host or cells: baculovirus expression system (Bac-To-Bac, Life Technologies)
Experiment: PARS inhibition test (in vitro)
Format: biochemical
Details: recombinant human PARS, [14C]-NAD+, 10 min room temperature
Experimental: The activity of substances as PARS inhibitors is tested in accordance with the method of Ushiro [Ushiro et al., J. Biol. Chem., 262, 2352-2357 (1987)]. To this end, recombinantly expressed (Bac-To-Bac, Baculo virus expression system; Instruction Manual; Life Technologies) human PARS enzyme is activated in a buffer which contains radioactively labeled [^14C]-NAD^+. The poly(ADP-ribose) units that are synthesized are precipitated using trichloroacetic acid, and the proportion of labeled protein is determined by scintillation measurements. Incubation of PARS with inhibitors leads to a decrease in the proportion of labeled protein and thus to a reduced radioactivity.
Inhibition of the PARS activity can be represented as a percentage of PARS inhibition in incubation with different substances or as the concentration at which 50% of the enzyme is inhibited, i.e. as IC50 value.
The compounds to be tested are dissolved in DMSO (dimethyl sulfoxide) at a concentration of 10 mM. The assay is carried out in deep 96-well plates. Per well, 70 μl of buffer, 10 μl of DNA, 10 μl of histones, 10 μl of NAD^+/[^14C]-NAD^+ mix and 0.5-5 μl of PARS (about 10,000 cpm/test) are combined with 1 μl of the compounds (final concentration 0.001-10 μM), to give a total volume of about 110 μl. The mixture is incubated at room temperature for 10 min, and 1 ml of ice-cold TCA solution is then added, and the precipitated labeled proteins are sucked onto a filter paper (printed filter mat A; from Wallac) using a harvester (from Scatron). The filter is dried, sealed together with a scintillation sheet (Multilex A; from Wallac) and measured in a p counter for 1 min per well.
In addition to the substances described in this application, the known PARS inhibitor 1,5-dihydroxyisoquinoline (DHCH) is tested as reference substance. The results of the test are stated as IC50 values for the inhibition of PARS.

T1 sequence (P09874 whole entry): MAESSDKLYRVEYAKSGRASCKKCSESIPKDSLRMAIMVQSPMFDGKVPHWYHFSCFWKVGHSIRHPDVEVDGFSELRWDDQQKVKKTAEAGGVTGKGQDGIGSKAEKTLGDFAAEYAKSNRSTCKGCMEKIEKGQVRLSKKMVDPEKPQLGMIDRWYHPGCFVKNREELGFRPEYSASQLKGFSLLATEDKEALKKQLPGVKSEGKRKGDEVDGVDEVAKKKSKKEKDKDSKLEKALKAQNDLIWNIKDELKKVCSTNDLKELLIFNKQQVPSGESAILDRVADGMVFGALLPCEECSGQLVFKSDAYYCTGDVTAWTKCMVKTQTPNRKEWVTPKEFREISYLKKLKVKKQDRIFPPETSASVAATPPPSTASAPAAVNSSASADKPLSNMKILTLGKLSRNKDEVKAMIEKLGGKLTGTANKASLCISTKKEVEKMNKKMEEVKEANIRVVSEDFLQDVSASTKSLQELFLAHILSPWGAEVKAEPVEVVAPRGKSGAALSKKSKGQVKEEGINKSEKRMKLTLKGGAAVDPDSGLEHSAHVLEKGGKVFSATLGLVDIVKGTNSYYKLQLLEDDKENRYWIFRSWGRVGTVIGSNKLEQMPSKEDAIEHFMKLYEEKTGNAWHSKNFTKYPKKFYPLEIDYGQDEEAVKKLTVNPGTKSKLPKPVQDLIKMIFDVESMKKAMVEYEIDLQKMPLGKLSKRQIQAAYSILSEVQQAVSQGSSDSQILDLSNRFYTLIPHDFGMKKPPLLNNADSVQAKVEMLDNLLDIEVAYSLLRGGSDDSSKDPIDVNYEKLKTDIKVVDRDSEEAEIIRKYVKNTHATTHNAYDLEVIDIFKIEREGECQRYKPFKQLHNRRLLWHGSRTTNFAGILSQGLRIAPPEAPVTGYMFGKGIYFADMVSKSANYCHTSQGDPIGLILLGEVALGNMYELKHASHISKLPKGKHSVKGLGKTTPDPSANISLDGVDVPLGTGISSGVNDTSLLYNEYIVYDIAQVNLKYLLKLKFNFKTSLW

Row | Structure (SMILES) | IC50
1 | O=c1[nH]c(=O)n(CCc2ccc(CNCCO)cc2)c2c1CSCC2 [Example 6, 1-[2-(4-{[(2-Hydroxyethyl)amino]methyl}phenyl)ethyl]-1,5,7,8-tetrahydro-2H-thiopyrano-[4,3-d]pyrimidine-2,4(3H)-dione] | 50 nM
2 | Oc1cccc2c(O)nccc12 [DHCH, 1,5-dihydroxyisoquinoline, reference compound] | 300 nM
3 | O=c1[nH]c(=O)n(CCc2ccc(Br)cc2)c2c1CSCC2 [Example 1, 1-[2-(4-Bromophenyl)ethyl]-1,5,7,8-tetrahydro-2H-thiopyrano[4,3-d]pyrimidine-2,4(3H)-dione] | 60 nM

Second part, the molecule after the results:

Row | IC50 | Structure (SMILES)
4 | 80 nM | Cc1[nH]ncc1CCCn1c2c(c(=O)[nH]c1=O)CSCC2 [Example 53]
5 | 85 nM | Cc1cn(CCCn2c3c(c(=O)[nH]c2=O)CSCC3)cn1 [Example 8, 1-[3-(4-Methyl-1H-imidazol-1-yl)propyl]-1,5,7,8-tetrahydro-2H-thiopyrano[4,3-d]pyrimidine-2,4(3H)-dione]
6 | 20 nM | O=c1[nH]c(=O)n(CCc2ccc([N+](=O)[O-])cc2)c2c1CSCC2 [Example 40]
7 | 800 nM | CC(C)N1CCN(C(=O)c2ccc(CCn3c4c(c(=O)[nH]c3=O)CSCC4)cc2)CC1 [Example 62]
8 | 75 nM | O=c1[nH]c(=O)n(Cc2cccnc2)c2c1CSCC2 [Example 56]

System: MHEC5-T cells
Experiment: Cell protection assay (in vitro), H2O2-induced cell death
Format: cell-based
Details: MHEC5-T endothelial cells, 3 mM H2O2, 5 hours, Alamar blue; 10 μM DHCH defined as 100% protection; read-out: Cell protection (in vitro) EC50
Experimental: In accordance with a method described by Bowes [Bowes et al., Br. J. Pharmacol., 124, 1760-1766 (1998)], the ability of PARS inhibitors to protect cells against cell death induced by incubation with H2O2 is examined in a cell protection assay. Incubation of endothelial cells with H2O2 results in the generation of DNA strand breaks which in turn activate PARS, resulting in a drastic energy decrease in the cells and in cell death. Living cells are quantified by a fluorimetric redox indicator (Alamar blue), which is converted in the electron transport system of the mitochondria.
Specifically, 7500 MHEC5-T cells/well (DSM ACC 336; German collection of microorganisms and cell cultures) are sown in 4 replications on a 96-well plate. After 24 hours, the cells are incubated with 3 mM aqueous H2O2 solution and differing concentrations of the substances in the presence of 6% by volume of Alamar blue solution in the medium at 37° C. for 5 hours. The reference substance used is 10 μM 1,5-dihydroxyisoquinoline (DHCH) solution. After the incubation, the fluorescence is measured at an excitation wavelength of 530-560 nm and an emission wavelength of 590 nm. The percentage for the cell protection is calculated as the difference between the living cells treated only with H2O2 and the cells treated with H2O2 and PARS inhibitors. The internal standard used is 10 μM DHCH, which is defined as 100% protection. The results obtained for the other substances are compared to this value.
The EC50 values indicate the concentration at which 50% of maximum cell protection is reached, maximum protection by 10 μM DHCH being defined as 100%. DHCH has an EC50 value of 2 μM.

Row | Structure (SMILES) | EC50
9 | O=c1[nH]c(=O)n(CCc2ccc(CN3CCCCC3)cc2)c2c1CSCC2 [Example 61] | 100 nM
10 | O=c1[nH]c(=O)n(CCCn2ccnc2)c2c1CSCC2 [Example 76] | 500 nM
11 | O=c1[nH]c(=O)n(CCc2cccnc2)c2c1CSCC2 [Example 66] | 650 nM
12 | O=c1[nH]c(=O)n(CCCn2cnc([N+](=O)[O-])c2)c2c1CSCC2 [Example 65] | 90 nM
13 | O=Cc1ccc(CCn2c3c(c(=O)[nH]c2=O)CSCC3)cc1 [Example 5] | 150 nM

Same assay, conditions: MHEC5-T endothelial cells, 3 mM H2O2; maximum protection by 10 μM DHCH defined as 100%; read-out: EC50 value cell protection

Row | Structure (SMILES) | EC50
14 | Oc1cccc2c(O)nccc12 [DHCH, 1,5-dihydroxyisoquinoline, reference compound] | 2000 nM
